Results on eleven compounds are retold here after ChEMBL document CHEMBL5215007, “Polycyclic Polyprenylated Acylphloroglucinols Bearing a Lavandulyl-Derived Substituent from Garcinia xanthochymus Fruits” (J Nat Prod, 2022).

Each structure is given as a SMILES string. Active and inactive are the calls of the source. The calls are words filed in the database; no cut-off is given here.

Test [1] has as its system Huh-7. In words: Antiproliferative activity against human Huh-7 cells assessed as inhibition of cell proliferation incubated for 24 hrs by CCK-8 assay. It counts as functional, cell-based. To be noted: Huh-7, 24 h.
Another test concerns Hep 3B2. Nature of the test: Antiproliferative activity against human Hep3B cells assessed as inhibition of cell proliferation incubated for 24 hrs by CCK-8 assay. It counts as functional, cell-based.
The test system of the next test is HepG2. In words: Antiproliferative activity against human HepG2 cells assessed as inhibition of cell proliferation incubated for 24 hrs by CCK-8 assay. To be noted: HepG2, 24 h. It counts as functional, cell-based.
Test [2] concerns Huh-7. Nature of the test: Antimigratory activity against human Huh-7 cells assessed as inhibition of cell migration at 6.25 to 12.5 uM incubated for 48 hrs by scratch wound healing assay. It counts as functional, cell-based. The note with it: dose 6.25-12.5 µM.
The subject of test [3] is Huh-7. Nature of the test: Induction of apoptosis in human Huh-7 cells assessed as viable cells at 3.125 uM incubated for 24 hrs by Annexin V-FITC/PI staining based flow cytometric analysis (reference value: 92.31 %). It counts as functional. The note with it: read-out: Activity.
The subject of test [4] is Huh-7. Nature of the test: Induction of apoptosis in human Huh-7 cells assessed as early apoptotic cells at 3.125 uM incubated for 24 hrs by Annexin V-FITC/PI staining based flow cytometric analysis (reference value: 2.83 %). It counts as functional.
For test [5], the system named is Huh-7. Nature of the test: Induction of apoptosis in human Huh-7 cells assessed as late apoptotic cells at 3.125 uM incubated for 24 hrs by Annexin V-FITC/PI staining based flow cytometric analysis (reference value: 3.19 %). It counts as functional.
In test [6] the test system is Huh-7. Nature of the test: Induction of apoptosis in human Huh-7 cells assessed as necrotic cells at 3.125 uM incubated for 24 hrs by Annexin V-FITC/PI staining based flow cytometric analysis (reference value: 1.67 %). It counts as functional.
In test [7] the test system is Huh-7. Nature of the test: Induction of apoptosis in human Huh-7 cells assessed as viable cells at 6.25 uM incubated for 24 hrs by Annexin V-FITC/PI staining based flow cytometric analysis (reference value: 92.31 %). It counts as functional. The note with it: read-out: Activity.
Test [8] concerns Huh-7. Nature of the test: Induction of apoptosis in human Huh-7 cells assessed as early apoptotic cells at 6.25 uM incubated for 24 hrs by Annexin V-FITC/PI staining based flow cytometric analysis (reference value: 2.83 %). It counts as functional.
The subject of test [9] is Huh-7. In words: Induction of apoptosis in human Huh-7 cells assessed as late apoptotic cells at 6.25 uM incubated for 24 hrs by Annexin V-FITC/PI staining based flow cytometric analysis (reference value: 3.19 %). It counts as functional.
The test system of test [10] is Huh-7. Nature of the test: Induction of apoptosis in human Huh-7 cells assessed as necrotic cells at 6.25 uM incubated for 24 hrs by Annexin V-FITC/PI staining based flow cytometric analysis (reference value: 1.67 %). It counts as functional.
For test [11], the system named is Huh-7. Nature of the test: Induction of apoptosis in human Huh-7 cells assessed as viable cells at 12.5 uM incubated for 24 hrs by Annexin V-FITC/PI staining based flow cytometric analysis (reference value: 92.31 %). It counts as functional. To be noted: read-out: Activity.
For test [12], the system named is Huh-7. In words: Induction of apoptosis in human Huh-7 cells assessed as early apoptotic cells at 12.5 uM incubated for 24 hrs by Annexin V-FITC/PI staining based flow cytometric analysis (reference value: 2.83 %). It counts as functional.
In test [13] the test system is Huh-7. In words: Induction of apoptosis in human Huh-7 cells assessed as late apoptotic cells at 12.5 uM incubated for 24 hrs by Annexin V-FITC/PI staining based flow cytometric analysis (reference value: 3.19 %). It counts as functional.
Test [14] relates to Huh-7. In words: Induction of apoptosis in human Huh-7 cells assessed as necrotic cells at 12.5 uM incubated for 24 hrs by Annexin V-FITC/PI staining based flow cytometric analysis (reference value: 1.67 %). It counts as functional.
Test [15] has as its target Signal transducer and activator of transcription 3 (Homo sapiens) (UniProt P40763). In words: Inhibition of STAT3 phosphorylation in human Huh-7 cells at 6.25 to 12.5 uM by Western blot analysis. It counts as cell-based. The note with it: dose 6.25-12.5 µM.

Chain of Signal transducer and activator of transcription 3 (Homo sapiens) (P40763 whole entry): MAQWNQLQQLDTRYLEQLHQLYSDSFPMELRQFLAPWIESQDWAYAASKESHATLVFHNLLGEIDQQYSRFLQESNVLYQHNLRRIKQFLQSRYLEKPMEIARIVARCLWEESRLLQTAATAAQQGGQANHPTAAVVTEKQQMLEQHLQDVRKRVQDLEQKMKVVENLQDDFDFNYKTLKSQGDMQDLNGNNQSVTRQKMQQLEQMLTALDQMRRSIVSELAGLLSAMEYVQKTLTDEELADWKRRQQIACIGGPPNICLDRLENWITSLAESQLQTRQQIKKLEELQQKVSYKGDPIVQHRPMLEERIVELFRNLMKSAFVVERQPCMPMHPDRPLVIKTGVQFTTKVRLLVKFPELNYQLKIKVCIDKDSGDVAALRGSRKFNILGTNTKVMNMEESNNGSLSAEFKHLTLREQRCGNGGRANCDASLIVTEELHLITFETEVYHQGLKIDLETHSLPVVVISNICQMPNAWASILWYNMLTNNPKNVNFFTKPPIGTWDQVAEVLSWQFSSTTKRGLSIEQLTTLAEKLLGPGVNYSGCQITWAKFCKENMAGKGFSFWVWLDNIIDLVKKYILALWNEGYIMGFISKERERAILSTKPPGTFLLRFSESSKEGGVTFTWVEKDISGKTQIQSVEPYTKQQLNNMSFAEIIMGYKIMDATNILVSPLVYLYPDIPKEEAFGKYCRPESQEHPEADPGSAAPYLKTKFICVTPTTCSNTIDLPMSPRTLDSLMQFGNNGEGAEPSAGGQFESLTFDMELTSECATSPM

With `C=C(C)CC[C@@H]1C[C@]23C[C@H](CC=C(C)C)C(C)(C)[C@](CC=C(C)C)(C(=O)C(C(=O)c4cccc(O)c4)=C2OC1(C)C)C3=O`, the half-maximal inhibitory concentration (IC50) came out at 28.2 µM in the test on Huh-7 [1], 44.8 µM with Hep 3B2 and 12.4 µM in the test on HepG2.

Consider `C=C(C)[C@H]1C[C@]23C[C@H](CC=C(C)C)C(C)(C)[C@](CC=C(C)C)(C(=O)C(C(=O)c4ccc(O)c(O)c4)=C2O[C@@H]1C=C(C)C)C3=O`, for which the IC50 with Huh-7 [1] is 18.1 µM; in the test with Hep 3B2, 18.2 µM; in the test with HepG2, 11 µM.

For `C=C(C)[C@H]1C[C@]23C[C@H](CC=C(C)C)C(C)(C)[C@](CC=C(C)C)(C(=O)C(C(=O)c4cccc(O)c4)=C2O[C@@H]1C=C(C)C)C3=O`, the 50% inhibitory concentration (IC50) with Huh-7 [1] worked out at 25.1 µM; with Hep 3B2, 17.9 µM; in the test with HepG2, 22 µM.

As for `C=C(C)CC[C@@H]1C[C@]23C[C@@H](CC=C(C)C)C(C)(C)[C@](CC=C(C)C)(C(=O)C(C(=O)c4ccc(O)c(O)c4)=C2OC1(C)C)C3=O`, the half-inhibitory concentration (IC50) in the test on Huh-7 [1] is 9.3 µM; in the test with Hep 3B2 it was 17.1 µM; in the test with HepG2, 11.3 µM. For the same compound, the result in the test with Huh-7 [2] was Active. Besides, the viability at 3.125 µM in the test on Huh-7 [3] is 80.8%. Further, the Activity came to 11.74% in the test with Huh-7 [4]; 5.35% with Huh-7 [5]; 2.09% with Huh-7 [6]; 11.09% in the test on Huh-7 [8]; 5.65% with Huh-7 [9]; 3.01% with Huh-7 [10]. For the same compound, the Activity in the test on Huh-7 [12] is recorded as 11.75%; in the test on Huh-7 [13], 6.37%; in the test with Huh-7 [14] it was 4.17%. In the test with Huh-7 [7], the viability at 6.25 µM turned out to be 80.3%. Besides, the viability at 12.5 µM in the test with Huh-7 [11] was 77.7%. Besides, in test [15], the inhibition result was “Active”.

Consider `CC(C)=CC[C@@H]1C[C@]23C[C@H](CCC(C)(C)O)C(C)(C)OC2=C(C(=O)c2ccc(O)c(O)c2)C(=O)[C@@](CC=C(C)C)(C3=O)C1(C)C`, for which the IC50 in the test on Huh-7 [1] worked out at 12.6 µM; with Hep 3B2, 9 µM; with HepG2, 3.9 µM.

Consider `CC(C)=CC[C@@H]1C[C@]23C[C@@H](CC=C(C)C)C(C)(C)[C@](CC=C(C)C)(C(=O)C(C(=O)c4ccc(O)c(O)c4)=C2OC1(C)C)C3=O`, for which the results for the IC50 in the test on Huh-7 [1], with Hep 3B2 and in the test with HepG2 were 9.3 µM, 9.3 µM and 4.3 µM, respectively. In addition, in the test with Huh-7 [2], the outcome was Active. In addition, the viability at 3.125 µM in the test on Huh-7 [3] worked out at 84.4%. Moreover, the Activity in the test on Huh-7 [4] stood at 10.88%; with Huh-7 [5], 3.19%; in the test on Huh-7 [6], 1.53%; in the test with Huh-7 [8], 8.39%; in the test with Huh-7 [9], 3.38%; in the test on Huh-7 [10], 1.69%. For the same compound, the values for the Activity with Huh-7 [12], in the test on Huh-7 [13] and in the test on Huh-7 [14] were 10.38%, 3.3% and 2.55%, respectively. Moreover, in the test on Huh-7 [7], the viability at 6.25 µM came out at 86.5%. Moreover, in the test on Huh-7 [11], the viability at 12.5 µM was determined as 83.8%. Moreover, the inhibition entry in test [15] was “Active”.

Regarding `CC(C)=CC[C@@H]1C[C@]23C[C@H](CCC(C)(C)O)C(C)(C)[C@](CC=C(C)C)(C(=O)C(C(=O)c4ccc(O)c(O)c4)=C2OC1(C)C)C3=O`, the IC50 with Huh-7 [1] was found to be 20.6 µM; in the test on Hep 3B2, 23.9 µM; in the test on HepG2 it was 11.7 µM.

For the compound `C=C(C)CC[C@H]1C[C@]23C[C@@H](CC=C(C)C)C(C)(C)[C@](CC=C(C)C)(C(=O)C(C(=O)c4ccc(O)c(O)c4)=C2OC1(C)C)C3=O`, the 50% inhibitory concentration (IC50) in the test on Huh-7 [1] came to 22.9 µM; in the test with Hep 3B2, 15.5 µM; in the test with HepG2, 22.5 µM.

In the case of `C=C(C)CC[C@@H]1C[C@]23C[C@H](CCC(C)(C)O)C(C)(C)[C@](CC=C(C)C)(C(=O)C(C(=O)c4ccc(O)c(O)c4)=C2OC1(C)C)C3=O`, the IC50 with Huh-7 [1] came to 17.3 µM; with Hep 3B2 it was 15.8 µM; with HepG2, 9.5 µM.

`CNC(=O)c1cc(Oc2ccc(NC(=O)Nc3ccc(Cl)c(C(F)(F)F)c3)cc2)ccn1` [SORAFENIB]: the concentration for half-maximal inhibition (IC50) in the test with Huh-7 [1] came out at 9.7 µM; in the test on Hep 3B2, 12.4 µM; in the test with HepG2 it was 16.6 µM.

As to `C=C(C)CC[C@@H](C[C@]12C[C@H](CC=C(C)C)C(C)(C)[C@](CC=C(C)C)(C(=O)C(C(=O)c3cccc(O)c3)=C1O)C2=O)C(=C)C`, the half-maximal inhibitory concentration (IC50) in the test with Huh-7 [1] was determined as 27.2 µM; in the test on Hep 3B2, 20.8 µM; in the test with HepG2, 23.2 µM.
